# Activity calls are given as the source filed them. No cut-off for these calls is given here.
# Assays:
# [1] = target: T1, Lysine-specific histone demethylase 1A (Homo sapiens, UniProt O60341); experiment: Inhibition of recombinant His-tagged LSD1 (157 to 852 residues) (unknown origin) expressed in Escherichia coli BL21 (DE3) cells using H3K4me2 peptide as substrate incubated for 30 mins by fluorescence microplate reader analysis
# [2] = Tmax in male Sprague-Dawley rat at 10 mg/kg, ip measured at 0 to 1440 mins by LC-MS/MS analysis; type: ADME, organism-based; conditions: in vivo, time 0-1440 min
# [3] = Half-life in male Sprague-Dawley rat at 10 mg/kg, ip measured at 0 to 1440 mins by LC-MS/MS analysis; type: ADME, organism-based; conditions: in vivo, time 0-1440 min
# [4] = Toxicity in female Balb/c mouse assessed as effect on AST level at 50 mg/kg, ip administered every other day for 7 times; type: organism-based; conditions: in vivo
# [5] = Toxicity in female Balb/c mouse assessed as histological changes in heart at 50 mg/kg, ip administered every other day for 7 times by H and E staining based analysis; type: organism-based; conditions: in vivo
# [6] = Toxicity in female Balb/c mouse assessed as histological changes in kidney at 50 mg/kg, ip administered every other day for 7 times by H and E staining based analysis; type: organism-based; conditions: in vivo
# [7] = Retention time of the compound by HPLC-MS/MS analysis; type: physicochemical
# [8] = system: MCF7; experiment: Cytotoxicity against human MCF7 cells assessed as cell viability at 0 to 100 uM incubated for 24 hrs by MTT assay; type: functional; conditions: dose 0-100 µM
# [9] = Cytotoxicity against human MCF-10A cells assessed as cell viability at 0 to 100 uM incubated for 24 hrs by MTT assay; type: toxicity, cell-based; conditions: dose 0-100 µM, read-out: Activity
# [10] = system: MDA-MB-231; experiment: Inhibition of cell migration in human MDA-MB-231 cells incubated for 24 hrs by phase contrast microscopy based wound healing assay; type: functional; conditions: dose 0-32 µM
# [11] = system: MDA-MB-231; experiment: Inhibition of epithelial to mesenchymal transition in human MDA-MB-231 cells assessed as downregulation of N-cadherin protein expression by Western blotting analysis; type: functional, cell-based; conditions: dose 0-32 µM
# [12] = system: MDA-MB-231; experiment: Antimetastatic activity against human MDA-MB-231 cells expressing luciferase xenografted in female Balb/c nude mouse assessed as reduction in fluorescence intensity in lungs at 50 mg/kg, ip administered every 3 days and measured on day 15 by bioluminescence imaging analysis relative to control; type: functional; parameters: scale not given: the % may be the effect or the level left; conditions: time 15 day
# [13] = system: MDA-MB-231; experiment: (§1) Antimetastatic activity against human MDA-MB-231 cells expressing luciferase xenografted in female Balb/c nude mouse assessed as reduction in number of metastatic nodules in the lung at 25 mg/kg, ip administered every 3 days and measured after 30 days by H and E staining based histopathological analysis relative to control; type: functional; parameters: scale not given: the % may be the effect or the level left; conditions: time 30 day
# [14] = system: MDA-MB-231; experiment: as §1, with “50” for “25”; type: functional; parameters: scale not given: the % may be the effect or the level left; conditions: time 30 day
# [15] = system: MDA-MB-231; experiment: Antitumor activity against human MDA-MB-231 cells expressing luciferase xenografted in female Balb/c nude mouse assessed as increase in body weight at 12 to 50 mg/kg, ip administered every 3 days and measured after 33 days; type: functional, organism-based; conditions: dose 12-50 mg/kg, time 33.0 day
# [16] = Toxicity in female Balb/c nude mouse xenografted with human MDA-MB-231 cells expressing luciferase assessed as abnormalities heart at 12 to 50 mg/kg, ip administered every 3 days and measured after 30 days by H and E staining based analysis; type: organism-based; conditions: in vivo, 720 h, dose 12-50 mg/kg, time 30 day
# [17] = Toxicity in female Balb/c nude mouse xenografted with human MDA-MB-231 cells expressing luciferase assessed as abnormalities liver at 12 to 50 mg/kg, ip administered every 3 days and measured after 30 days by H and E staining based analysis; type: organism-based; conditions: in vivo, 720 h, dose 12-50 mg/kg, time 30 day
# [18] = Toxicity in female Balb/c nude mouse xenografted with human MDA-MB-231 cells expressing luciferase assessed as abnormalities spleen at 12 to 50 mg/kg, ip administered every 3 days and measured after 30 days by H and E staining based analysis; type: organism-based; conditions: in vivo, 720 h, dose 12-50 mg/kg, time 30 day
# [19] = Toxicity in female Balb/c nude mouse xenografted with human MDA-MB-231 cells expressing luciferase assessed as abnormalities kidney at 12 to 50 mg/kg, ip administered every 3 days and measured after 30 days by H and E staining based analysis; type: organism-based; conditions: in vivo, 720 h, dose 12-50 mg/kg, time 30 day
# [20] = target: T1, Lysine-specific histone demethylase 1A; experiment: Inhibition of LSD1 (unknown origin) at 0.32 to 6.40 uM; conditions: dose 0.32-6.4 µM, time 0-25 min
# [21] = target: T1, Lysine-specific histone demethylase 1A; experiment: Binding affinity to LSD1 (unknown origin) assessed as dissociation constant by Microscale thermophoresis assay
# [22] = target: T1, Lysine-specific histone demethylase 1A; experiment: Inhibition of LSD1 in human MDA-MB-231 cells assessed as increase in H3K4me1 accumulation by Western blotting analysis; type: cell-based; conditions: dose 0-32 µM
# [23] = target: T1, Lysine-specific histone demethylase 1A; experiment: Inhibition of LSD1 in human MDA-MB-231 cells assessed as increase in H3K4me2 accumulation by Western blotting analysis; type: cell-based; conditions: dose 0-32 µM
# [24] = system: MDA-MB-231; experiment: Effect on E-cadherin protein expression in LSD1 knockout human MDA-MB-231 cells at 16 uM by Western blot analysis; type: functional, cell-based
# [25] = system: MDA-MB-231; experiment: Inhibition of cell migration in LSD1 knockout human MDA-MB-231 cells at 16 uM incubated for 24 hrs by phase-contrast microscopy based wound healing assay; type: functional
# [26] = system: MDA-MB-231; experiment: Antimetastatic activity against LSD1 knockout human MDA-MB-231 cells xenografted in wild type zebrafish yolk sac assessed as inhibition of cell migration at 12.5 mg/L incubated for 3 days by fluorescence microscopic analysis; type: functional, cell-based; conditions: time 3.0 day
# [27] = system: MDA-MB-231; experiment: Antimetastatic activity against LSD1 knockout human MDA-MB-231 cells xenografted in mouse model assessed as reduction in number of metastatic nodules in the lung measured after 27 days; type: functional, cell-based; conditions: time 27.0 day
# [28] = species: Homo sapiens; experiment: Binding affinity to recombinant LSD1 Ser817A mutant (unknown origin) by MST assay
# [29] = species: Homo sapiens; experiment: Binding affinity to recombinant LSD1 Ser817A mutant (unknown origin) assessed as protection of pronase-dependent degradation at 15 to 75 uM preincubated for 30 mins followed by pronase addition and measured after 30 mins by DARTS assay; conditions: dose 15-75 µM, time 60.0 min
# [30] = system: MDA-MB-231; experiment: Upregulation of RBMS3 mRNA level in human MDA-MB-231 cells by qRT-PCR analysis; type: functional, cell-based; conditions: dose 4-32 µM
# [31] = Toxicity in female Balb/c nude mouse xenografted with human MDA-MB-231 cells expressing luciferase assessed as appearance of heart lesions at 12 to 50 mg/kg, ip administered every 3 days and measured after 30 days by H and E staining based analysis; type: organism-based; conditions: in vivo, 720 h, dose 12-50 mg/kg, time 30 day
# [32] = Toxicity in female Balb/c nude mouse xenografted with human MDA-MB-231 cells expressing luciferase assessed as appearance of liver lesions at 12 to 50 mg/kg, ip administered every 3 days and measured after 30 days by H and E staining based analysis; type: organism-based; conditions: in vivo, 720 h, dose 12-50 mg/kg, time 30 day
# [33] = system: MDA-MB-231; experiment: Upregulation of H3K4me1 protein expression in human MDA-MB-231 cells by Western blot analysis; type: functional, cell-based; conditions: dose 4-32 µM
# [34] = system: MDA-MB-231; experiment: Upregulation of H3K4me2 protein expression in human MDA-MB-231 cells by Western blot analysis; type: functional, cell-based; conditions: dose 4-32 µM
# [35] = system: MDA-MB-231; experiment: Effect on LSD1 protein expression in human MDA-MB-231 cells at 4 to 32 uM by Western blot analysis; type: functional, cell-based; conditions: dose 4-32 µM
# [36] = system: MDA-MB-231; experiment: Upregulation of RBMS3 promoter level in human MDA-MB-231 cells by chromatin immunoprecipitation assay; type: functional, cell-based
compound,measurement,setting,value
C[C@@H]1O[C@H](OC[C@H]2O[C@@H](OCCc3ccc(O)c(O)c3)[C@H](O)[C@@H](OC(=O)/C=C/c3ccc(O)c(O)c3)[C@@H]2O)[C@H](O)[C@H](O)[C@H]1O,IC50,[1],1.58 µM
same,Tmax,[2],79.8 min
same,half-life,[3],34.8 min
same,Activity,[4],Non-toxic
same,Activity,[5],Non-toxic
same,Activity,[6],Non-toxic
same,Retention_time,[7],18.4 min
same,Activity,[8],>90%
same,"viability at 24 h, up to 100 µM",[9],> 90%
same,inhibition,[10],Dose-dependent-effect
same,inhibition,[11],Dose-dependent-effect
same,Activity,[12],73.3%
same,Activity,[13],33.3%
same,Activity,[14],52.5%
same,Activity,[15],Active; Slight Increase In Body Weight Observed
same,Activity,[16],Non-toxic
same,Activity,[17],Non-toxic
same,Activity,[18],Non-toxic
same,Activity,[19],Non-toxic
same,inhibition,[20],Time-dependent-effect
same,Kd,[21],5.19 µM
same,inhibition,[22],Dose-dependent-effect
same,inhibition,[23],Dose-dependent-effect
same,Activity,[24],inactive
same,inhibition,[25],Active; No Significant Difference With Lsd1 Knockout Control Group
same,Activity,[26],Active; No Significant Difference With Lsd1 Knockout Control Group
same,Activity,[27],Active
same,Activity,[28],inactive
same,Activity,[29],inactive
same,Activity,[30],Dose-dependent-effect
same,Activity,[31],Non-toxic
same,Activity,[32],Non-toxic
same,Activity,[33],Dose-dependent-effect
same,Activity,[34],Dose-dependent-effect
same,Activity,[35],inactive
same,Activity,[36],Active

# From ChEMBL document CHEMBL6078646, “Target Ligand Separation and Identification of Isoforsythiaside as a Histone Lysine-Specific Demethylase 1 Covalent Inhibitor Against Breast Cancer Metastasis” (J Med Chem, 2024)
